Assay results published in article PMC10051798, “Thiosemicarbazide Derivatives Targeting Human TopoIIα and IDO-1 as Small-Molecule Drug Candidates for Breast Cancer Treatment” (International Journal of Molecular Sciences, 2023).
In brackets after ≈: the same amount, converted by molar mass. Several values for one entry are separate records, joined by “and”; a condition that tells them apart may be missing. Identical values can stand only once. Each block holds one compound with its values, some of them ahead of it.

What was measured:
[1] = tested on: MCF-7 cells; test: Autophagy Assay (Red kit) flow cytometry, MCF-7; format: cell-based, human; settings: 24 h
Procedure: (§1) In order to evaluate the number of autophagosomes and autolysosomes in breast cancer cells incubated with the investigated compounds, anAutophagy Assay (Red kit) was performed (ImmunoChemistry Technologies, Bloomington, MN, USA). In short, the unfixed cells were washed and resuspended in PBS with the added autophagy probe, Red solution. Next, the cells were incubated for 30 min at 37 °C in the dark, washed, resuspended in cellular assay buffer and the provided fixative was added at a volume/volume ratio of 1:5. The samples were measured immediately after preparation by flow cytometry using the BD FACSCanto II system (BD Biosciences Systems, San Diego, CA, USA). The percentage of cells with autophagy was calculated using FACSDiva software (version 6.1.3, BD Biosciences Systems, San Diego, CA, USA).

[2] = tested on: MCF-7 cells; design: method as in PMID 36345785; settings: BrdU assay; cited from earlier work
[3] = tested on: MCF-10A cells; test: MTT viability assay, normal breast epithelial cells; format: cell-based, human
Procedure: Human breast cancer cells, i.e., MCF-7 (estrogen-dependent breast cancer cells) and MDA-MB-231 (estrogen-independent breast cancer cells), as well as normal human breast epithelial cells (MCF-10A) were purchased from the American Type Culture Collection (ATCC, Manassas, VA, USA). MCF-7 and MDA-MB-231 cells were cultured in DMEM (Sigma Aldrich, St. Louis, MO, USA) supplemented with 10% fetal bovine serum (FBS), penicillin (100 U/mL) and streptomycin (100 μg/mL). MCF-10A cells were cultured in Mammary Epithelial Cell Growth Medium supplemented with BPE, hEGF, insulin, hydrocortisone, GA-1000 (Lonza, Basel, Switzerland), 10% fetal bovine serum (FBS), penicillin (100 U/mL) and streptomycin (100 μg/mL). The cells were grown in T25 Cell Culture EasyFlask (Nunc, Roskilde, Denmark) at 37 °C in a humidified atmosphere of 5% CO2.
MTT assays were performed to evaluate the cytotoxic activity of the investigated compounds (1–3) against MCF-10A cells. Asuspension of cells (1 × 10^5 cells/mL) was distributed onto 96-well plates at a volume of 100 μL/well. After attachment, the cells were treated with increased concentrations of the tested compounds in medium containing 2% FBS, and incubated for 24 h. Then, 15 μL of MTT working solution (5 mg/mL in PBS) was added to each well and the plates were incubated for 3 h. Subsequently, 100 μL of 10% SDS solution was added to each well in order to dissolve the formazan formed. After overnight incubation at 37 °C, the absorbance of the obtained solution was measured at λ= 570 nm using a microplate reader (Epoch, BioTek Instruments, Inc., Winooski, VT, USA). At least two independent experiments were performed in triplicate. IC50 values of the tested compounds were calculated using the IC50 online calculator [27].

[4] = tested on: MDA-MB-231 cells; test: Autophagy Assay (Red kit) flow cytometry, MDA-MB-231; format: cell-based, human; settings: 24 h
Procedure: as §1

[5] = target: T1, MDR1 (p-glycoprotein) in MDA-MB-231 cells (Homo sapiens, UniProt P08183); test: MDR transporter activity assay, MDR1 in MDA-MB-231; format: cell-based; settings: MDA-MB-231, 20 µg/mL, 24 h
T1 construct: endogenous in cells; host or cells: MCF-7 and MDA-MB-231 cells
T1 sequence (P08183 whole entry): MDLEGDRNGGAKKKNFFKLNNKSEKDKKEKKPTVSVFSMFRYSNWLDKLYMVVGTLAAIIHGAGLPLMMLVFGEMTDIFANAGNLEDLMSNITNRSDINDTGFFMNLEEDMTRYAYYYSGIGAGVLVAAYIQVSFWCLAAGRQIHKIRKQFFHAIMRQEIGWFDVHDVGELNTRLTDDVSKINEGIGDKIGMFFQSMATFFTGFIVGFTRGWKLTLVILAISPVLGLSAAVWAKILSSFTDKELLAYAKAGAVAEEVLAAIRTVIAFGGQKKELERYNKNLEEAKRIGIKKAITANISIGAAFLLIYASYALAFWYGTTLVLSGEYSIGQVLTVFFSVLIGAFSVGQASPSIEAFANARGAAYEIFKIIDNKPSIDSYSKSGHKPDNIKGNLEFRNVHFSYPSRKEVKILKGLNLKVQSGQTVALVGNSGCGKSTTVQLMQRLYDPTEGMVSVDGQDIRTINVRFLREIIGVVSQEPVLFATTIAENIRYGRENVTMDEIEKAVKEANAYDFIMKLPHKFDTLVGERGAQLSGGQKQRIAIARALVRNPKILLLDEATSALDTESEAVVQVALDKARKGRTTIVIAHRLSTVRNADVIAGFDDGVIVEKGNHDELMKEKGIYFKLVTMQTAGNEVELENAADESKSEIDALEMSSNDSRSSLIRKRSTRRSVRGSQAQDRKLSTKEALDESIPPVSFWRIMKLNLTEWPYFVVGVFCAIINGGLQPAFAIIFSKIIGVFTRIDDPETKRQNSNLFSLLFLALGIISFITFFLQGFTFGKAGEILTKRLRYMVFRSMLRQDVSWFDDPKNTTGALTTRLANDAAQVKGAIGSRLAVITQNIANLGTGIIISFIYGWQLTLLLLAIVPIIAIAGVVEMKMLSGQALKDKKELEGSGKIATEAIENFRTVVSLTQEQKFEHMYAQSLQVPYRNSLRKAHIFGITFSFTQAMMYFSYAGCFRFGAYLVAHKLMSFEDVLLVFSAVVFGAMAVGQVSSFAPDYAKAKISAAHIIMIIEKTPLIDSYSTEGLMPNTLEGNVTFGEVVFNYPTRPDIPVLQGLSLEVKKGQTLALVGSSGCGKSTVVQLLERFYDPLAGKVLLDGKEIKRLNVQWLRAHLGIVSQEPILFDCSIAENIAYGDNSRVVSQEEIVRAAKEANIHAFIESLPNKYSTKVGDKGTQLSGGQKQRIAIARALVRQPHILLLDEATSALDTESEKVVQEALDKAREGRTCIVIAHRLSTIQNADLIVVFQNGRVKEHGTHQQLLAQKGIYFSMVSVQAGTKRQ
Procedure: An MDR Assay kit (Abcam, Cambridge, UK) was used following the manufacturer’s instructions. MCF-7 and MDA-MB-231 cells were incubated with compounds 1–3 (10 μg/mL and 20 μg/mL). After 24 h of incubation, the test cells were washed twice with 5 mL of PBS by centrifugation at 1200 rpm for 10 min. The supernatants were discarded and the cells were counted using a Scepter 3.0 handheld automated cell counter (Milipore, Burlington, MA, USA). Then, each of the tested samples was divided into three parts and analyzed. Tomeasure the activity of MDR1, MRP1 and BCRP (tubes 1–12), 5 μL of verapamil (MDR1 inhibitor) was added into tubes 1–3, 5 μL of MK-571 (MRP1 inhibitor) was added into tubes 4–6, 5 μL of noviobiocin (BCRP inhibitor) was added into tubes 7–9 and 125 μL DMEM with 1 μL of DMSO was added into tubes 10–12. Then, the samples were incubated at 37 °C for five minutes. After this time, 125 μL of Efflux Green Detection Reagent was added into tubes 1–12 and the samples were incubated for 30 min at 37 °C. After 25 min of incubation, 5 μL of PI was added to each tube. Thereafter, the samples were centrifuged for 10 min at 1200 rpm. The supernatants were discarded and the cells were resuspended in 500 μL of PBS and run on the flow cytometer immediately. Measurements were conducted on a BD FACSCanto II flow cytometer using FACSDiva software (version 6.1.3, BD Biosciences, San Diego, CA, USA). […] The calculations followed these formulas:MAFMDR1= 100 × (FMDR1 − F0)/FMDR1 MAFMRP= 100 × (FMRP − F0)/FMRP MAFBCRP= 100 × (FBCRP − F0)/FBCRP
• FMDR—MFI with MDR1 inhibitor (verapamil) • FMRP—MFI with MRP inhibitor (MK-571) • FBCRP—MFI with BCRP inhibitor (novobiocin) • F0—MFI without inhibitor
The theoretical range of the MAF values is between 0 and 100.

[6] = tested on: MCF-7 cells; test: Cell cycle analysis (PI flow cytometry), MCF-7; format: cell-based, human; settings: MCF-7, 20 µg/mL, 24 h
Procedure: Cell cycle analyses of MCF-7 and MDA-MB-231 cells treated with compounds 1–3 and etoposide for 24 h were performed using a FACSCanto II flow cytometer (BD Bioscences Systems, San Diego, CA, USA). After incubation, breast cancer cells were trypsinized and fixed with cold ethanol (70%) and stored overnight at −20 °C. After removing ethanol, the cells were washed three times with PBS, treated with 50 μg/mL of DNase-free RNase A Solution (Promega, Madison, WI, USA) and stained with 100 μg/mL of PI. The results of measurements were analyzed using FCS Express 7 software (De Novo Software, Pasadena, CA, USA).

[7] = tested on: MCF-7 cells; design: method as in PMID 36345785; settings: MTT; cited from earlier work
[8] = tested on: MDA-MB-231 cells; design: method as in PMID 36345785; settings: MTT; cited from earlier work
[9] = target: recombinant CYP2D6 (Homo sapiens, UniProt P10635); test: Vivid CYP2D6 Cyan screening kit; settings: 10 µM, positive control
Chain of recombinant CYP2D6 (P10635 whole entry): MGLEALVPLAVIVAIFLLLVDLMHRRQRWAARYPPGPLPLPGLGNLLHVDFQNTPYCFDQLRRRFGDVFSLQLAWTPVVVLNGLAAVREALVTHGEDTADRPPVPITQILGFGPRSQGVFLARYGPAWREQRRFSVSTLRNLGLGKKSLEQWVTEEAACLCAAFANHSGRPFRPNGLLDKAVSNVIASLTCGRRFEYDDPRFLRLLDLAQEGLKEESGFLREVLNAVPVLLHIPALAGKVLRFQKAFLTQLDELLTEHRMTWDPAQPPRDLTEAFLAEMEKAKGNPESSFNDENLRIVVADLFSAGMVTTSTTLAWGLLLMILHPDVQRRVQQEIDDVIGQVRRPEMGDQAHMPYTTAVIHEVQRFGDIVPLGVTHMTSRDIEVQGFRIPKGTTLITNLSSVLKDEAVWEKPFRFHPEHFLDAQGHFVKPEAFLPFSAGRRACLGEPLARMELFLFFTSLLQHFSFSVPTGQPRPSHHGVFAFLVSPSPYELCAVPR
Procedure: According to these assays, the examined compounds are analyzed by their ability to inhibit the production of a fluorescent signal in the reaction between recombinant CYP3A4 or CYP2D6 isozymes and specific Vivid substrates. The experiments were performed in the endpoint mode of the assay, in which solutions of examined compounds were first combined with the Master Pre-mix. After a short incubation, the background fluorescence of the Master Pre-mix and the examined compounds was measured. Next, a mix of the respective Vivid substrate and NADP^+ was added in order to initiate the enzymatic reaction. After 20 min of incubation, the reaction was terminated using a stop solution and the fluorescence was measured using the recommended (by the manufacturer) excitation and emission wavelengths. […] A reaction mixture without tested compounds was used as a negative control and its fluorescence was designated as 100%. The experiments were run in triplicate and the results were presented as means ± SD.

[10] = tested on: MCF-7 cells; test: Annexin V/propidium iodide flow cytometry (apoptosis), MCF-7; format: cell-based, human; settings: MCF-7, 20 µg/mL, 24 h
Source text: (§2) Flow cytometry analyses for apoptosis induction by the compounds 1–3 and etoposide wereperformedusing an FITC Annexin V Apoptosis Detection Kit II (BD Pharmingen, San Diego, CA, USA). The rationale of the assay is based on the externalization of phosphatidylserine on the surface of apoptotic cells. In early and late apoptotic cells, the phosphatidylserine translocates into the outer layer of the membrane, which allows annexin V-FITC to attach. Propidium iodide (PI) is, in turn, a fluorescent dye that penetrates into the late apoptotic and necrotic cells with impaired cell membrane integrity. Therefore, using annexin V and PI, it is possible to distinguish four groups of cells: living cells, early apoptotic cells, late apoptotic cells and necrotic cells. MCF-7 and MDA-MB-231 cells were incubated with 10 and 20 µg/mL of compounds 1–3 and etoposide (reference drug) for 24 h. After incubation, the cells were dyed with FITC-labeled annexin V and PI. The analysis was performed on a BD FACS Canto II flow cytometer using FACSDiva software (version 6.1.3, BD Biosciences Systems, San Diego, CA, USA). The equipment was calibrated with BD Cytometer Setup and Tracking Beads (BDBiosciences, San Diego, CA, USA).

[11] = tested on: MDA-MB-231 cells; test: Annexin V/propidium iodide flow cytometry (apoptosis), MDA-MB-231; format: cell-based, human; settings: MDA-MB-231, 20 µg/mL, 24 h
Source text: as §2

[12] = tested on: caspase-8 in MCF-7 cells; test: FLICA caspase-8 activity flow cytometry, MCF-7; format: cell-based, human; settings: MCF-7, 20 µg/mL, 24 h
Procedure: (§3) Caspase-8 and caspase-9 activitiesweremeasured using the FLICA Caspase-8 Assay Kit and FLICA Caspase-9 Assay Kit (ImmunoChemistry Technologies, Bloomington, MN, USA), respectively, according to the manufacturer’s protocol. In brief, MCF-7 and MDA-MB-231 breast cancer cells (1 × 10^6) were washed with cold PBS twice and re-suspended in buffer. Then, 5 μL of diluted FLICA reagent and 2 μL of Hoechst 33,342 were added to 93 μL of cell suspension, mixed by pipetting and incubated for 60 min at 37 °C. After incubation, the cells were washed twice with 400 μL of apoptosis wash buffer and centrifuged at 300× g. After the last wash, the cells were resuspended in 100 μL of apoptosis wash buffer supplemented with 10 μg/mL of PI. Analyses were performed using aBD FACSCanto II flow cytometer, and the results were analyzed with FACSDiva software (version 6.1.3, BD BiosciencesSystems, San Diego, CA, USA). To identify the involvement of caspases in apoptosis induced by compounds 1–3, the investigated breast cancer cells were pretreated with the pan-caspase inhibitor, Z-VAD-FMK (100 µM) (Sigma Aldrich, St. Louis, MO, USA), as described in [28]. The activation of caspases-8 and -9 was detected as described above.

[13] = tested on: caspase-8 in MDA-MB-231 cells; test: FLICA caspase-8 activity flow cytometry, MDA-MB-231; format: cell-based, human; settings: MDA-MB-231, 20 µg/mL, 24 h
Procedure: as §3

MAF MDR1 [5]: < 20
Compound: CC(C)c1cccc(C(C)C)c1NC(=S)NNC(=O)Cc1cccc2ccccc12 [Compound 1]
cells undergoing autophagy ([1]; MCF-7, 10 µg/mL): 2.5 ± 0.2%
cells undergoing autophagy ([1]; MCF-7, 20 µg/mL): 11.5 ± 1.2%
antiproliferative activity, times stronger than etoposide [2]: 46 times
selectivity index (SI), cancer vs normal (non-cancerous) cells [2]: 46.8
IC50 ([3]; Homo sapiens, MCF-10A, MTT, 24 h): 25.3 µg/mL and 60.3 µM
SIMCF-7 (selectivity index) ([3]; IC50 MCF-10A/IC50 MCF-7): 2.57
SIMDA-MB-231 (selectivity index) ([3]; IC50 MCF-10A/IC50 MDA-MB-231): 2.75
cells undergoing autophagy ([4]; MDA-MB-231, 10 µg/mL (lower end of printed range)): 3.0 ± 0.2%
cells undergoing autophagy ([4]; MDA-MB-231, 20 µg/mL (upper end of printed range)): 5.5 ± 0.9%
cells in G2/M phase [6]: 33.6%
cells in S phase [6]: 35.9%
IC50 [7]: 23.4 ± 1.12 µM
IC50 MCF-7 [7]: 9.82 ± 0.47 µg/mL (≈ 23.4 µM)
IC50 [8]: 21.9 ± 0.5 µM
IC50 MDA-MB-231 [8]: 9.21 ± 0.21 µg/mL (≈ 21.9 µM)

Compound: C=C[C@H]1C[N@@]2CC[C@H]1C[C@@H]2[C@@H](O)c1ccnc2ccc(OC)cc12 [guanidine]
CYP2D6 activity vs. negative control [9]: 11.08 ± 0.81%

Compound: COc1cc([C@@H]2c3cc4c(cc3[C@@H](O[C@@H]3O[C@@H]5CO[C@@H](C)O[C@H]5[C@H](O)[C@H]3O)[C@H]3COC(=O)[C@H]23)OCO4)cc(OC)c1O [etoposide, reference compound]
cell population forming autophagosomes and/or autolysosomes ([1]; MCF-7, etoposide-treated, concentration not specified): about 1%
apoptotic cells (sum of early and late apoptotic cells) [10]: about 8.5%
apoptotic cells (sum of early and late apoptotic cells) [11]: about 8.5%
cell population forming autophagosomes and/or autolysosomes ([4]; MDA-MB-231, etoposide-treated, concentration not specified): about 1%
cells with activated caspase-8 [12]: 6.73%
cells with activated caspase-8 [13]: 7.2%
